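Grown in 96-well plates, cells were treated for 48 hours with each compound at five concentrations. Insufficient inhibition: endpoint recorded as highest concentration tested. TGI is the concentration that stops growth completely.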 Where a SMILES comes first, the peptide text is derived from it.
Key:
Assay in all cases: NCI tumour cell line growth inhibition, 48 h
[1] = test system: NCI/ADR-RES ovarian
[2] = test system: MDA-MB-231 breast
[3] = test system: LOX IMVI melanoma
[4] = test system: UO-31 renal
[5] = test system: A549 NSCLC
[6] = test system: NCI-H23 lung
[7] = test system: SF-539 CNS
[8] = test system: SN12C renal
[9] = test system: OVCAR-3 ovarian
[10] = test system: NCI-H522 lung
[11] = test system: SF-295 CNS
[12] = test system: BT-549 breast
[13] = test system: PC-3 prostate
[14] = test system: TK-10 renal
[15] = test system: A498 renal
[16] = test system: CCRF-CEM leukemia
[17] = test system: SK-OV-3 ovarian
[18] = test system: HCT-116 colon
[19] = test system: U251 CNS
[20] = test system: UACC-257 melanoma

Compound	TGI [1] [µM]	TGI [2] [µM]	TGI [3] [µM]	TGI [4] [µM]	TGI [5] [µM]	TGI [6] [µM]	TGI [7] [µM]	TGI [8] [µM]	TGI [9] [µM]	TGI [10] [µM]	TGI [11] [µM]	TGI [12] [µM]	TGI [13] [µM]	TGI [14] [µM]	TGI [15] [µM]	TGI [16] [µM]	TGI [17] [µM]	TGI [18] [µM]	TGI [19] [µM]	TGI [20] [µM]
CCOc1cc2c(cc1O)C=C[C@@H]1[C@@H]2CC[C@]2(C)[C@@H](O)CC[C@@H]12	12.8	28.9	30.4	> 86.1	> 100	> 48.1	7.03	> 77.3	6.74	7.3	5.45	> 100	> 100	> 92	57.9	> 42.5	> 70.2	16	> 38.3	> 100
CC(C)(C)c1ccc(NS(=O)(=O)c2ccc(N)cc2)cc1	75.9	68.1	33.1	73.5	> 100	67.9	41.7	48.6	12.9	38.7	14	54.8	85.7	> 100	46.4	40.2	12.5	34.7	39.2	> 100
Cc1cc(-c2nc3ccc(F)cc3s2)ccc1NC(=O)C(N)CCCCN (centres undefined)	34.1	23.1	4.73	16.1	5.54	18.5	7.75	21.3	22.4	17.3	19.3	28.3	22.7	14.5	24	7.68	27.1	10.3	5.01	28.1
Cn1c2ccccc2c2c3c(c4c5ccccc5n(C)c4c21)C(=O)N(Cc1ccccc1)C3=O	> 100	> 100	> 100	> 100	> 100	> 100	> 100	> 100		> 100	> 100	> 100	> 100	> 100	> 100	> 100	> 100	> 100	> 100	> 100
Nc1ccc2nc3n(c2c1)C(c1c(F)cccc1F)SC3 (centres undefined)	> 100	> 100	> 100	> 100	> 100	> 100	> 100	> 100	> 100	> 100	> 100	> 100	> 100	> 100	> 100	> 100	> 100	> 100	> 100	> 100
CCCC(=O)Oc1c2ccsc2c(OC(=O)CCC)c2ccsc12	4.55	10.3	10.7	5.11	6.84	3.64	2.16	2.98	4.5	4.85	0.885	2.83	3.52	7.67	7.34	9.13	10.4	4.82	4.4	1.82
CCCCC1Nc2ccccc2-c2ccnc(Cl)c21 (centres undefined)	99.6	43.8	34.7	55.8	> 100	31.4	41.8	51	25.2	29.6	47.7	42.6	> 100	> 100	46.4	52.6	55.7	32.3	50.1	42.3
CC(=O)NC(CS)C(=O)NC(CO)C(=O)NC(CO)C(=O)NC(Cc1c[nH]c2ccccc12)C(=O)N1CCCC1C(=O)NC(CO)C(=O)NC(Cc1c[nH]c2ccccc12)C(=O)NC(Cc1c[nH]cn1)C(=O)NC(CO)C(=O)NC(Cc1c[nH]c2ccccc12)C(=O)NCC(=O)NCC(=O)NC(C)C(=O)NC(CCC(N)=O)C(=O)NC(CCCCN)C(=O)NC(C)C(=O)NC(CCCNC(=N)N)C(=O)NC(CCCCN)C(N)=O (centres undefined) (Ac-CSSWPSWHSWGGAQKARK-NH2; configuration not given here)	> 50	19.7	> 50	> 50	> 50	48.8	> 50	> 50	> 50	> 50	> 50	41	> 50	> 50	> 50	> 50	> 50	> 50	27.7	19.6
CCOC(=O)c1ccc(Nc2nc3ccccc3n3cccc23)cc1	> 100	> 100	> 100	> 100	> 100	> 100	> 100	39.4	> 100	> 100	> 100	> 100	> 100	> 100	> 100	0.108	92.4	> 100	98	> 100
Cc1ccc2c(ccc3ncc(CNc4ccc(NS(C)(=O)=O)cc4)c32)[nH]1	> 100	74.5	46.2	74.7	66	58.7	50.5	92.5	43.8	35.5	59.2	> 100	68.7	> 100	33.8	> 100	84.2	37.9	72.2	34.7
COC(=O)c1ccc(Oc2nc3ccc(C(F)(F)F)cc3nc2-c2ccccc2)cc1	> 100	> 100	> 100	> 100	> 100	> 100	> 100	> 100	> 100	> 100	> 100	> 100	> 100	> 100	> 100	> 100	> 100	> 100	> 100	> 100
NC1=Nc2ccccc2Sc2nccn21	72	35.9	32.3	63.9	> 100	52.2	56.1	> 100	66	44.3	43.7	> 100	65	72.6	75.8	75.3	> 100	> 100	96.2	75
C[C@H](CCC(=O)O)[C@H]1CC[C@H]2[C@@H]3[C@H](O)[C@H](O)[C@@H]4C[C@H](O)CC[C@]4(C)[C@H]3CC[C@]12C	> 100	> 100	> 100	> 100	> 100	> 100	> 100	> 100		> 100		> 100	> 100	> 100	> 100	> 100		> 100	> 100	> 100
Cc1nc(-c2cccnc2)sc1C(=O)CC(=O)C(=O)Nc1cccc(NC(=O)C(=O)CC(=O)c2sc(-c3cccnc3)nc2C)n1	> 100	> 100	> 100	> 100	> 100	> 100	> 100	> 100	> 100	> 100	> 100	> 100	> 100		> 100	> 100	> 100	> 100	> 100	> 100
Cc1ccc(N2C=Nn3c(nc4sc5c(c4c3=O)CCCC5)C2)cc1	> 100	> 100	> 100	> 100	> 100	> 100		> 100	> 100	> 100	> 100	> 100	> 100	> 100	> 100	> 100	> 100	> 100	> 100	> 100
COc1ccc2[nH]c3c(c2c1)CCc1c(OC)cccc1-3	> 100	> 100	> 100	> 100	> 100	> 100		> 100	> 100	> 100	> 100	> 100	> 100	> 100	> 100	> 100	> 100	> 100	> 100	> 100
COc1ccccc1N1C(=O)CSC1c1cccc(Oc2ccccc2)c1 (centres undefined)	46.2	32.4	32.4	32.9	47.4	52.9	31.6	31.9	45.1	34.7	41.1	31.9	40	48.4	36.6	> 100	> 100	31.5	30.7	33.6
CCN(CC)CCOCCOCC1(c2ccc(Cl)c(Cl)c2)CCCCC1	24.3	23	21.4	12.9	23.1	24.5	24.8	24.9	22.3	22.1	15.1	26	23.3	21.7	27.6	14.7	24.5	18.8	21.5	9.57
CCOC(=O)C1=NN(c2ccc(C)cc2)C2(c3ccccc3)C=C(c3ccccc3)N(C)CCN12 (centres undefined)	> 100	> 100	> 100	> 100	> 100	> 100	> 100	> 100	> 100	> 100	> 100	> 100	> 100	> 100	> 100	> 100	> 100	> 100	> 100	> 100
C1=C2C3=[N+](CCCC3)CC2Cc2sccc21 (centres undefined)	> 100	> 100	> 100	> 100	> 100	> 100		> 100	> 100	> 100	> 100	> 100	> 100	> 100	> 100	> 100	> 100	> 100	> 100	> 100
Cc1c(C)c(S(=O)(=O)N(CCCN)OCCCN)c(C)c2c1OC(C)(C)CC2	60.1	17.6	26.1	31.5	29.6	27.9		28.4	29.5	28.4	30.4	31.4	24.5	28	26.2	27.6	29.8	30	24.1	27.3
CC1(C)CC[C@]2(C)[C@@H](O)C[C@]3(C)C(=CC[C@@H]4[C@@]5(C)CC[C@H](O)C(C)(C)[C@@H]5CC[C@]43C)[C@@H]2C1	> 100	48.6	46.1	> 100	> 100	> 100		> 100	> 100	> 100	> 100	> 100	> 100	93.2	99.2	> 100	40.7	> 100	> 100	> 100
O=C(O)CN1CCN2CCCCCCCCN(CC1)CCN(CC(=O)O)CC2	> 100	> 100	> 100	> 100	> 100		> 100	> 100	> 100	> 100	> 100	> 100	> 100	> 100	> 100	> 100	> 100	> 100	> 100	> 100
